From ChEMBL document CHEMBL4422645, “Benzimidazole tethered pyrrolo[3,4-b]quinoline with broad-spectrum activity against fungal pathogens” (Bioorg Med Chem Lett, 2019)
In brackets after ≈: the same amount, converted by molar mass.

Legend:
Candida albicans [1] = assay: Antifungal activity against Candida albicans after 24 hrs by microbroth dilution method; format: functional
Candida albicans [2] = assay: Antifungal activity against Candida albicans NR-29441 after 24 hrs by microbroth dilution method; format: functional; conditions: NR-29441, 24 h
Candida albicans [3] = assay: Antifungal activity against Candida albicans NR-29440 after 24 hrs by microbroth dilution method; format: functional; conditions: NR-29440, 24 h
Cryptococcus neoformans [4] = assay: Antifungal activity against Cryptococcus neoformans NR-41296 after 24 hrs by microbroth dilution method; format: functional; conditions: NR-41296, 24 h
Candida albicans [5] = assay: Antifungal activity against Candida albicans NR-29435 after 24 hrs by microbroth dilution method; format: functional; conditions: NR-29435, 24 h
Candida parapsilosis = assay: Antifungal activity against Candida parapsilosis ATCC 22019 after 24 hrs by microbroth dilution method; format: functional; conditions: Lodderomyces parapsilosis, ATCC 22019, 24 h
Candida albicans [6] = assay: Antifungal activity against Candida albicans NR-29446 after 24 hrs by microbroth dilution method; format: functional; conditions: NR-29446, 24 h
Cryptococcus neoformans [7] = assay: Antifungal activity against Cryptococcus neoformans NR-41295 after 24 hrs by microbroth dilution method; format: functional; conditions: NR-41295, 24 h
Candida albicans [8] = assay: Antifungal activity against Candida albicans NR-29439 after 24 hrs by microbroth dilution method; format: functional; conditions: NR-29439, 24 h
Candida albicans [9] = assay: Antifungal activity against Candida albicans NR-29448 after 24 hrs by microbroth dilution method; format: functional; conditions: NR-29448, 24 h
Nakaseomyces glabratus = assay: Antifungal activity against Candida glabrata ATCC 90030 after 24 hrs by microbroth dilution method; format: functional; conditions: ATCC 90030, 24 h
Candida albicans [10] = assay: Antifungal activity against Candida albicans NR-29442 after 24 hrs by microbroth dilution method; format: functional; conditions: NR-29442, 24 h
Candida albicans [11] = assay: Antibiofilm activity against 48 hrs old pre-formed biofilms of Candida albicans ATCC 10231 at 128 ug/ml after 24 hrs by MTS assay relative to control; format: functional
Candida albicans [12] = assay: Antifungal activity against Candida albicans […] after 24 hrs by microbroth dilution method; format: functional
Candida albicans [13] = assay: Antifungal activity against Candida albicans NR-29434 after 24 hrs by microbroth dilution method; format: functional; conditions: NR-29434, 24 h
Cryptococcus neoformans [14] = assay: Antifungal activity against Cryptococcus neoformans NR-41298 after 24 hrs by microbroth dilution method; format: functional; conditions: NR-41298, 24 h
Candida albicans [15] = assay: Antifungal activity against Candida albicans NR-29438 after 24 hrs by microbroth dilution method; format: functional; conditions: NR-29438, 24 h
Candida albicans [16] = assay: Antifungal activity against Candida albicans NR-29437 after 24 hrs by microbroth dilution method; format: functional; conditions: NR-29437, 24 h
Candida albicans [17] = assay: Antifungal activity against Candida albicans NR-29449 after 24 hrs by microbroth dilution method; format: functional; conditions: NR-29449, 24 h
Cryptococcus neoformans [18] = assay: Antifungal activity against Cryptococcus neoformans NR-41291 after 24 hrs by microbroth dilution method; format: functional; conditions: NR-41291, 24 h
Cryptococcus neoformans [19] = assay: Antifungal activity against Cryptococcus neoformans NR-41297 after 24 hrs by microbroth dilution method; format: functional; conditions: NR-41297, 24 h
Candida albicans [20] = assay: Antibiofilm activity against 48 hrs old pre-formed biofilms of Candida albicans ATCC 10231 at 16 ug/ml after 24 hrs by MTS assay relative to control; format: functional
Candida albicans [21] = assay: Antifungal activity against Candida albicans ATCC 10231 after 24 hrs by microbroth dilution method; format: functional; conditions: ATCC 10231, 24 h
Candida albicans [22] = assay: Antifungal activity against Candida albicans NR-29367 after 24 hrs by microbroth dilution method; format: functional; conditions: NR-29367, 24 h
Cryptococcus neoformans [23] = assay: Antifungal activity against Cryptococcus neoformans NR-41292 after 24 hrs by microbroth dilution method; format: functional; conditions: NR-41292, 24 h
Candida albicans [24] = assay: Antifungal activity against Candida albicans NR-29366 after 24 hrs by microbroth dilution method; format: functional; conditions: NR-29366, 24 h
Cryptococcus neoformans [25] = assay: Antifungal activity against Cryptococcus neoformans NR-41299 after 24 hrs by microbroth dilution method; format: functional; conditions: NR-41299, 24 h
Candida albicans [26] = assay: Antifungal activity against Candida albicans NR-29444 after 24 hrs by microbroth dilution method; format: functional; conditions: NR-29444, 24 h
Cryptococcus neoformans [27] = assay: Antifungal activity against Cryptococcus neoformans NR-41294 after 24 hrs by microbroth dilution method; format: functional; conditions: NR-41294, 24 h
HCT-116 [28] = assay: Cytotoxicity against human HCT116 cells assessed as reduction in cell viability at 32 to 128 ug/ml after 24 hrs by MTS assay; format: cell-based; conditions: hct-116, 24 h
HCT-116 [29] = assay: Cytotoxicity against human HCT116 cells assessed as reduction in cell viability up to 4 ug/ml after 24 hrs by MTS assay; format: cell-based; conditions: hct-116, 24 h
Candida albicans [30] = assay: Antibiofilm activity against 48 hrs old pre-formed biofilms of Candida albicans ATCC 10231 at 32 ug/ml after 24 hrs by MTS assay relative to control; format: functional

## Cc1cccc2cc3c(nc12)-c1nc2ccccc2n1C3
Candida albicans [1]
  MIC: 16 µg/mL (≈ 59 µM)

## OC(Cn1cncn1)(Cn1cncn1)c1ccc(F)cc1F [FLUCONAZOLE]
Candida albicans [2]
  MIC: 4 µg/mL (≈ 13.1 µM)
Candida albicans [3]
  MIC: 2 µg/mL (≈ 6.53 µM)
Cryptococcus neoformans [4]
  MIC: 1 µg/mL (≈ 3.27 µM)
Candida albicans [5]
  MIC: 0.25 µg/mL (≈ 0.816 µM)
Candida parapsilosis
  MIC: 0.25 µg/mL (≈ 0.816 µM)
Candida albicans [6]
  MIC: > 64 µg/mL
Cryptococcus neoformans [7]
  MIC: 2 µg/mL (≈ 6.53 µM)
Candida albicans [8]
  MIC: > 64 µg/mL
Candida albicans [9]
  MIC: > 64 µg/mL
Nakaseomyces glabratus
  MIC: 1 µg/mL (≈ 3.27 µM)
Candida albicans [10]
  MIC: 16 µg/mL (≈ 52.2 µM)
Candida albicans [11]
  Activity: 40%
Candida albicans [12]
  MIC: 2 µg/mL (≈ 6.53 µM)
Candida albicans [13]
  MIC: 0.5 µg/mL (≈ 1.63 µM)
Cryptococcus neoformans [14]
  MIC: 4 µg/mL (≈ 13.1 µM)
Candida albicans [15]
  MIC: 0.5 µg/mL (≈ 1.63 µM)
Candida albicans [16]
  MIC: 2 µg/mL (≈ 6.53 µM)
Candida albicans [17]
  MIC: 0.5 µg/mL (≈ 1.63 µM)
Cryptococcus neoformans [18]
  MIC: 1 µg/mL (≈ 3.27 µM)
Cryptococcus neoformans [19]
  MIC: 0.5 µg/mL (≈ 1.63 µM)
Candida albicans [20]
  Activity: 25%
Candida albicans [21]
  MIC: 1 µg/mL (≈ 3.27 µM)
Candida albicans [22]
  MIC: > 64 µg/mL
Cryptococcus neoformans [23]
  MIC: 1 µg/mL (≈ 3.27 µM)
Candida albicans [24]
  MIC: > 64 µg/mL
Cryptococcus neoformans [25]
  MIC: 2 µg/mL (≈ 6.53 µM)
Candida albicans [26]
  MIC: 2 µg/mL (≈ 6.53 µM)
Cryptococcus neoformans [27]
  MIC: 2 µg/mL (≈ 6.53 µM)

## Cc1ccc2nc3c(cc2c1)Cn1c-3nc2ccccc21
Candida albicans [1]
  MIC: 32 µg/mL (≈ 118 µM)

## c1ccc2nc3c(cc2c1)Cn1c-3nc2ccccc21
Candida albicans [2]
  MIC: 0.5 µg/mL (≈ 1.94 µM)
Candida albicans [3]
  MIC: 0.5 µg/mL (≈ 1.94 µM)
Cryptococcus neoformans [4]
  MIC: 1 µg/mL (≈ 3.89 µM)
Candida albicans [5]
  MIC: 0.5 µg/mL (≈ 1.94 µM)
Candida parapsilosis
  MIC: 1 µg/mL (≈ 3.89 µM)
Candida albicans [6]
  MIC: 0.5 µg/mL (≈ 1.94 µM)
Cryptococcus neoformans [7]
  MIC: 2 µg/mL (≈ 7.77 µM)
Candida albicans [8]
  MIC: 0.5 µg/mL (≈ 1.94 µM)
Candida albicans [9]
  MIC: 0.25 µg/mL (≈ 0.972 µM)
Nakaseomyces glabratus
  MIC: 1 µg/mL (≈ 3.89 µM)
Candida albicans [10]
  MIC: 0.5 µg/mL (≈ 1.94 µM)
Candida albicans [11]
  Activity: 60%
HCT-116 [28]
  Activity: 25%
Candida albicans [12]
  MIC: 0.0625 µg/mL (≈ 0.243 µM)
Candida albicans [13]
  MIC: 0.25 µg/mL (≈ 0.972 µM)
Cryptococcus neoformans [14]
  MIC: 2 µg/mL (≈ 7.77 µM)
Candida albicans [15]
  MIC: 0.25 µg/mL (≈ 0.972 µM)
Candida albicans [16]
  MIC: 0.0625 µg/mL (≈ 0.243 µM)
Candida albicans [17]
  MIC: 0.0625 µg/mL (≈ 0.243 µM)
Cryptococcus neoformans [18]
  MIC: 1 µg/mL (≈ 3.89 µM)
Cryptococcus neoformans [19]
  MIC: 0.5 µg/mL (≈ 1.94 µM)
Candida albicans [20]
  Activity: 25%
Candida albicans [21]
  MIC: 0.5 µg/mL (≈ 1.94 µM)
HCT-116 [29]
  Activity: Non-Toxic
Candida albicans [22]
  MIC: 0.5 µg/mL (≈ 1.94 µM)
Candida albicans [1]
  MIC: 0.5 µg/mL (≈ 1.94 µM)
Cryptococcus neoformans [23]
  MIC: 0.5 µg/mL (≈ 1.94 µM)
Candida albicans [24]
  MIC: 0.5 µg/mL (≈ 1.94 µM)
Cryptococcus neoformans [25]
  MIC: 2 µg/mL (≈ 7.77 µM)
Candida albicans [26]
  MIC: 0.25 µg/mL (≈ 0.972 µM)
Cryptococcus neoformans [27]
  MIC: 1 µg/mL (≈ 3.89 µM)
Candida albicans [30]
  Activity: 40%

## COc1ccc2cc3c(nc2c1)-c1nc2ccccc2n1C3
Candida albicans [1]
  MIC: > 64 µg/mL

## Brc1cccc2cc3c(nc12)-c1nc2ccccc2n1C3
Candida albicans [1]
  MIC: > 64 µg/mL

## Cc1ccc2cc3c(nc2c1)-c1nc2ccccc2n1C3
Candida albicans [1]
  MIC: 32 µg/mL (≈ 118 µM)

## COc1ccc2nc3c(cc2c1)Cn1c-3nc2ccccc21
Candida albicans [1]
  MIC: 16 µg/mL (≈ 55.7 µM)

## COc1cccc2cc3c(nc12)-c1nc2ccccc2n1C3
Candida albicans [1]
  MIC: 64 µg/mL (≈ 223 µM)

## Clc1cccc2cc3c(nc12)-c1nc2ccccc2n1C3
Candida albicans [1]
  MIC: 64 µg/mL (≈ 219 µM)
